Experimental data taken from article PMC3261198, “Mitochondrial Apoptosis and FAK Signaling Disruption by a Novel Histone Deacetylase Inhibitor, HTPB, in Antitumor and Antimetastatic Mouse Models” (PLoS ONE, 2012).

Tests used:
MMP-9 = settings: A549 and H1299 cells, 2.5 µM, 48 hours
in vitro [1] = settings: human, A549 cells
[2] = tested on: 4T1-luc breast cancer cells; settings: 1.92 µM, 48 hours
A549 cells [3] = experiment: cells; settings: Homo sapiens, A549, 48 h, read-out: IC50 (cytotoxicity)
[4] = tested on: IMR90 normal lung cell line; settings: 0.5–10 µM, 48 hours, MTT
[5] = tested on: acetylation of histone H3, histone H4 and p53; settings: single dose 50 mg/kg intraperitoneal, after 2 hours
in vitro [6] = settings: human, H1299 cells
[7] = 25–100 mg/kg intraperitoneal or oral, three weeks
HDAC6 = HDAC6 (Homo sapiens, UniProt Q9UBN7); settings: HTPB 1 or 2 µM; class II HDAC from A549 cells
HDAC11 = HDAC11 (Homo sapiens, UniProt Q96DB2); settings: HTPB 1 or 2 µM; class IV HDAC from A549 cells
[8] = tested on: 4T1-luc breast cancer cells; settings: 1.92 µM, 48 hours; remark: listed apart in the source
HDAC4 = HDAC4 (Homo sapiens, UniProt P56524); settings: HTPB 1 or 2 µM; class II HDAC from A549 cells
HDAC = settings: Fig. S5, compared to MS275
[9] = tested on: lung metastasis of 4T1-luc cells; settings: cells pre-treated with 1.92 µM for 48 hours, injected via tail vein, imaged 13 days
MMP-2 = settings: A549 and H1299 cells, 2.5 µM, 48 hours
RhoA = settings: A549 and H1299 cells, 2.5 µM, 48 hours
[10] = tested on: A549 lung tumor xenograft; experiment: In vivo anti-tumor growth assay; settings: for tumor growth inhibition compared with DMSO control / tumor growth inhibition: 3 days/week for three weeks; for tumor growth inhibition: oral
HDAC1 = HDAC1 (Homo sapiens, UniProt Q13547); settings: HTPB 1 or 2 µM; class I HDAC from A549 cells
[11] = tested on: acetylation of histone H3, histone H4, p53 and tubulin; settings: time- and dose-dependent, Western blot
H1299 cells [12] = settings: H1299, 5 µM, 24 hours
H1299 cells [13] = experiment: cells; settings: Homo sapiens, NCI-H1299, 48 h, read-out: IC50 (cytotoxicity)
A549 cells [14] = settings: A549, 5 µM, 24 hours
HDAC8 = HDAC8 (Homo sapiens, UniProt Q9BY41); settings: HTPB 1 or 2 µM; class I HDAC from A549 cells
HDAC8, sequence (Q9BY41 whole entry): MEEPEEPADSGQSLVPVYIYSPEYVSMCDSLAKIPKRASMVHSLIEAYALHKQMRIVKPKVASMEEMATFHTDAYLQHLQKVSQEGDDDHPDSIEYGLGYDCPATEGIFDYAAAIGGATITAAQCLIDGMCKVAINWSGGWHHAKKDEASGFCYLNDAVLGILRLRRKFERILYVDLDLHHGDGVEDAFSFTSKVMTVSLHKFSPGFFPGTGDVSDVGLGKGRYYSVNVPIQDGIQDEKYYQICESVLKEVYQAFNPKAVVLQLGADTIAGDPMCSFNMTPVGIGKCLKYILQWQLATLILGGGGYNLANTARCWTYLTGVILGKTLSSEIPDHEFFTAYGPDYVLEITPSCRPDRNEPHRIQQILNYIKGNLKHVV

HDAC11, sequence (Q96DB2 whole entry): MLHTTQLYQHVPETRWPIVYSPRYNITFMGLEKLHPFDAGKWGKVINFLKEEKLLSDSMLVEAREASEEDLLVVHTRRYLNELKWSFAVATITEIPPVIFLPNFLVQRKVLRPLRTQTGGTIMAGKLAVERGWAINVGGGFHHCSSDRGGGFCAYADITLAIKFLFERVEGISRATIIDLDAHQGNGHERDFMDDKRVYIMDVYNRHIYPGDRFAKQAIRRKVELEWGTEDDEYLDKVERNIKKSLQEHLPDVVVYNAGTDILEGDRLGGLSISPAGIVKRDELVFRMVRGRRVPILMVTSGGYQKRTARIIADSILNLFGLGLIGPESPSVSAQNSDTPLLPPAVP
HDAC6, sequence (Q9UBN7 whole entry): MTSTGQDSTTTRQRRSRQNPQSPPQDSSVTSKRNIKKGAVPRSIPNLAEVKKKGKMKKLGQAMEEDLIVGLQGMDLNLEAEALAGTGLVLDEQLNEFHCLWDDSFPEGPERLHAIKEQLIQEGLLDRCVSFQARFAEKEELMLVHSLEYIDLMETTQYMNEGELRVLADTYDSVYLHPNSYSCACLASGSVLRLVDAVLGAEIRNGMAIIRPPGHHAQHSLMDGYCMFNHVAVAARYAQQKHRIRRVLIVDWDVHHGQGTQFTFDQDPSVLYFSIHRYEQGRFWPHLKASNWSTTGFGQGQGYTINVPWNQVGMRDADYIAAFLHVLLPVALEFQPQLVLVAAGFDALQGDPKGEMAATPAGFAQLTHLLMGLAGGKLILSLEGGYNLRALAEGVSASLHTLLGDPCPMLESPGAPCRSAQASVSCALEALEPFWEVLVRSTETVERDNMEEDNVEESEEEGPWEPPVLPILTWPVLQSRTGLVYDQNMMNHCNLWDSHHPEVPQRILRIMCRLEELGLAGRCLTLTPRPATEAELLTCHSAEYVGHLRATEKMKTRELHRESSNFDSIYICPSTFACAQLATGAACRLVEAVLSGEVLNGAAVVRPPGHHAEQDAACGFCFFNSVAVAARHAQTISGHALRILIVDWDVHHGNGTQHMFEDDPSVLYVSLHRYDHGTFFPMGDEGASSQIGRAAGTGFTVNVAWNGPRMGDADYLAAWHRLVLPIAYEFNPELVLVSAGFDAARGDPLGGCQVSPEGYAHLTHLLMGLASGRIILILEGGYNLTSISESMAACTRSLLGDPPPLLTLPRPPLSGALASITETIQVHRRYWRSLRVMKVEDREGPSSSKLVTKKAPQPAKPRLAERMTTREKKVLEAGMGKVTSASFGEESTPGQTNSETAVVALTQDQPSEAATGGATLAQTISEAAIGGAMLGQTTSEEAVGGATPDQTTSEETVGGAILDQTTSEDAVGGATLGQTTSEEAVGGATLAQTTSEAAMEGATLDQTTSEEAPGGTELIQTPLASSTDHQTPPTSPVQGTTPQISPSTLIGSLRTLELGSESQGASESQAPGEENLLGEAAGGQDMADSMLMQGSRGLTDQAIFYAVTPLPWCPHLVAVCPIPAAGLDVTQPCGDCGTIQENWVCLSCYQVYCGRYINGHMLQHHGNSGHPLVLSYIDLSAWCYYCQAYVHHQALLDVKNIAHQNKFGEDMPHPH
HDAC1, sequence (Q13547 whole entry): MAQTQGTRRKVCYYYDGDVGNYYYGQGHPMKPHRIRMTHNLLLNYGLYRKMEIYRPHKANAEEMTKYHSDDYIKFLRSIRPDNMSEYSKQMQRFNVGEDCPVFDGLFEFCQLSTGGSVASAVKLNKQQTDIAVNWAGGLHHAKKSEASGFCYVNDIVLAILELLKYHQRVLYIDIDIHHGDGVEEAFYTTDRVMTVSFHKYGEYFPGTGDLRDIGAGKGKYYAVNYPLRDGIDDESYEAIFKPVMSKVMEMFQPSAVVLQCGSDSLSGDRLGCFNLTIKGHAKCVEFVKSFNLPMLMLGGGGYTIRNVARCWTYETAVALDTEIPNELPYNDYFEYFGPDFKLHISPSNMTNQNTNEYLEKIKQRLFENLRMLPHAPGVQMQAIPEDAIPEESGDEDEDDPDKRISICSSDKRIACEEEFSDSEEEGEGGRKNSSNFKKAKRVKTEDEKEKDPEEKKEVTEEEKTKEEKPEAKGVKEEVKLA

## O=C(CCCc1ccccc1)Nc1ccc(C(=O)NO)cc1 [HTPB, N-Hydroxy-4-(4-phenylbutyryl-amino)benzamide]
MMP-9
  MMP-9 enzyme activity: significantly decreased
In vitro [1]
  viability at 48 h, 0.5 µM: 87%
  viability at 48 h, 1 µM: 80%
[2]
  cell viability of 4T1-luc cells: did not change cell viability
A549 cells [3]
  IC50: 1.59 µM
[4]
  cytotoxicity towards IMR90 normal lung cell line: without showing apparent cytotoxicity
[5]
  acetylation of histone H3, histone H4 and p53 in tumor xenograft: profoundly increased
In vitro [6]
  viability at 48 h, 0.5 µM: 94%
  viability at 48 h, 1 µM: 85%
[7]
  effect on body weight: did not adversely affect body weight
  toxicity by hematological biochemistry examinations (GOT, GPT, albumin, creatinine): no detectable toxicity
HDAC6
  deacetylase activity of HDAC6: significantly inhibited
HDAC11
  deacetylase activity of HDAC11: significantly inhibited
[8]
  transwell migration capacities compared to the un-treated control: 50%
HDAC4
  deacetylase activity of HDAC4: significantly inhibited
HDAC
  in vitro HDAC activity compared to MS275: significant inhibition
[9]
  lung metastasis of 4T1-luc cells: significantly delayed lung metastasis
MMP-2
  MMP-2 enzyme activity: significantly decreased
RhoA
  RhoA activity (RhoA-GTP): markedly decreased
[10]; intraperitoneal, 25 mg/kg
  tumor growth inhibition compared with DMSO control: 80%
[10]; intraperitoneal, 50 mg/kg
  tumor growth inhibition compared with DMSO control: 94%
[10]; intraperitoneal, tumor weight
  anti-tumor growth effect, times more potent than SAHA as assessed by tumor weight: 2–4 times
[10]; 50 mg/kg
  tumor growth inhibition: 39%
[10]; 100 mg/kg
  tumor growth inhibition: 79%
HDAC1
  deacetylase activity of HDAC1: significantly inhibited
[11]
  acetylation of histone H3, histone H4, p53 and tubulin: induced acetylation
H1299 cells [12]
  caspase-3 activity: significantly stimulated
  caspase-9 activity: significantly stimulated
H1299 cells [13]
  IC50: 2.19 µM
A549 cells [14]
  caspase-3 activity: significantly stimulated
  caspase-9 activity: significantly stimulated
HDAC8
  deacetylase activity of HDAC8: significantly inhibited
